How the values were obtained:
rat bladder = assay: In vivo pH determination in rat bladder with copolarized zymonic acid and urea; conditions: injection into rat bladder via catheter, 10 mm slice
From the text: FIG. 19. Copolarization of zymonic acid and urea, injection into the rat bladder via a catheter.
A 10 mm slice covering the bladder volume was chosen.
6 injections of copolarized zymonic acid in healthy rats via a catheter directly into the bladder followed by pH-imaging and pH-control of the urine before an after injection by pH-electrode (see FIG. 19).

rats = assay: Toxicity tests in rats; format: in vivo
Description: Toxicity tests with a volume of 5 mL/kg at an injection rate of 0.2 mL/s for three different concentrations (20 mM (A), 40 mM (B), 80 mM (C)). Injection solution contained 80 mM Tris buffer solution, titrated with 1M NaOH to pH 7.4.
20 mM, 40 mM, and 80 mM zymonic acid were injected into 3 rats within one week with 1 day break in between each injection (see FIG. 14).
Blood pressure, heart rate, blood oxygenation and animal temperature were monitored 10 minutes before and after the injection.

[1] = cited from earlier work
HeLa cells = assay: MTT assay cell viability (cytotoxicity test); format: cell-based; conditions: 0.4 to 50 mM, 24 hours, up to tested concentration of 50 mM, ZA 100% pure, OMPD 80% OMPD/20% ZA
Description: MTT assay with HeLa cells for testing cell viability after exposure to (A) OMPD and (B) zymonic acid (ZA) (0.4 to 50 mM) for 24 hours.
(12C, ZA: 100% pure; OMPD: 80% OMPD, 20% ZA).
Purified zymonic acid and OMPD were tested in a MTT assay with HeLa cells for testing cell viability after exposure to each substance at concentrations of 0.4 to 50 mM for 24 hours. After 24 hours incubation time, both substances are not cytotoxic up to the tested concentration of 50 mM.

[2] = Stability in aqueous solution; format: physicochemical
Description: An exemplary ^13C spectrum (left column) and ^1H spectrum (right column) of zymonic acid produced from [1-^13C]-pyruvic acid. The relevant peaks 1 to 5, which shift in dependency of the pH value of the sample, are marked. The proton spectra show a buffered solution of zymonic acid in water and D2O, once measured right after preparation of the solution (top right) and 24 h later (bottom right).
The assignment of the NMR-peaks of zymonic acid was done using NMR prediction software (ChemDraw®) and standard 1D- and 2D-NMR-spectroscopy (see FIG. 5). […] The relevant peaks 1 to 5, which shift in dependency of the pH value of the sample, are marked. […] The proton spectra show a buffered solution of zymonic acid in water and D2O, once measured right after preparation of the solution (top right of FIG. 5) and 24 h later (bottom right of FIG. 5).

MCF-7 tumor cells = assay: 13C-OMPD in cell culture medium with MCF-7 tumor cells immobilized in alginate beads (extracellular pH); format: cell-based; conditions: ca. 6 mM fully-labeled 13C-OMPD, ca. 10 Mio. MCF-7 cells, 10 hours
Description: Ten ^13C-spectra (proton decoupled) of ca. 6 mM fully-labeled ^13C-OMPD dissolved in cell culture medium with ca. 10 Mio. MCF-7 tumor cells immobilized in alginate beads were acquired during a total time of 10 hours within every hour.
The pH sensitive OMPD-peaks 1, 5 and 6 of zymonic acid were also observed in ^13C-NMR spectra of ^13C-OMPD dissolved in cell culture medium with MCF-7 tumor cells immobilized in alginate beads.

| metabolism within tumor cells (MCF-7 tumor cells) | stability in aqueous solutions [2] | Structure (SMILES) | agreement of NMR-measured pH with electrode pH (rat bladder) | behaviour of the animals (rats; 20, 40 and 80 mM injections) | survival after injections (rats; 20, 40 and 80 mM, 5 mL/kg, 3 rats, injections within one week) | health problems (rats; 20, 40 and 80 mM, even after 3 days post last injection) | pKa of the enolic group [1] | cytotoxicity (cell viability, MTT) (HeLa cells) | decomposition in buffered solution ([2]; buffered solution in water and D2O, 24 hours, also cites Montgomery et al., 1956) |
| --- | --- | --- | --- | --- | --- | --- | --- | --- | --- |
|  |  | CC1(C(=O)O)C=C(O)C(=O)O1 (stereo not shown) [zymonic acid, 4-hydroxy-2-methyl-5-oxo-2,5-dihydrofuran-2-carboxylic acid] | Electrode pH measurements confirm the pH values measured by NMR spectroscopy | No unusual behaviour | survived all injections | did not show health problems | 6.95 | not cytotoxic | slowly decomposed into parapyruvate within a period of 24 hours |
| not metabolized within tumor cells | stable in aqueous solutions | C/C(=C/C(=O)C(=O)O)C(=O)O [OMPD, (Z)-4-methyl-2-oxopent-3-enedioic acid] |  |  |  |  |  | not cytotoxic |  |

Source: US20160252532A1, “pH-Biosensors Based on Compounds Produced From Pyruvic Acid For Magnetic Resonance Imaging and Spectroscopy and Their Uses” (TECHNISCHE UNIVERSITÄT MÜNCHEN, priority 2013, published 2016)
